In experiment [1] the target is T1, mycobacterial protein kinase G (PknG) (Mycobacterium tuberculosis, UniProt P9WI73).
T1 construct: GST; made in house; host or cells: E. coli BL21
The experiment is described as follows: biochemical.

Experiment [2] has as its system M. smegmatis expressing wildtype PknG in murine macrophage cell line RAW. It is filed as cell-based, Mycobacterium smegmatis. The note with it: FIG. 2.
Where [3] appears, read: ATP near Km, read-out: Inhibition of PknG (IC50, [μM]).
Where [4] appears, read: ranging from about 2 μM and more than 30 μM over the listed compounds, read-out: IC50 values, inhibition of PknG (span stated for the group).
[5] abbreviates: read-out: IC50 value, inhibition of serine/threonine protein kinase G of M. tuberculosis.

Here are results for 13 compounds from patent US20040171603A1, “Novel therapeutic targets for the treatment of mycobacterial infections and compounds useful therefor” (priority 2001, published 2004).

Read-outs that look alike come from different tables or passages of the source. Bounds are passed on as bounds.

T1 sequence (P9WI73 whole entry): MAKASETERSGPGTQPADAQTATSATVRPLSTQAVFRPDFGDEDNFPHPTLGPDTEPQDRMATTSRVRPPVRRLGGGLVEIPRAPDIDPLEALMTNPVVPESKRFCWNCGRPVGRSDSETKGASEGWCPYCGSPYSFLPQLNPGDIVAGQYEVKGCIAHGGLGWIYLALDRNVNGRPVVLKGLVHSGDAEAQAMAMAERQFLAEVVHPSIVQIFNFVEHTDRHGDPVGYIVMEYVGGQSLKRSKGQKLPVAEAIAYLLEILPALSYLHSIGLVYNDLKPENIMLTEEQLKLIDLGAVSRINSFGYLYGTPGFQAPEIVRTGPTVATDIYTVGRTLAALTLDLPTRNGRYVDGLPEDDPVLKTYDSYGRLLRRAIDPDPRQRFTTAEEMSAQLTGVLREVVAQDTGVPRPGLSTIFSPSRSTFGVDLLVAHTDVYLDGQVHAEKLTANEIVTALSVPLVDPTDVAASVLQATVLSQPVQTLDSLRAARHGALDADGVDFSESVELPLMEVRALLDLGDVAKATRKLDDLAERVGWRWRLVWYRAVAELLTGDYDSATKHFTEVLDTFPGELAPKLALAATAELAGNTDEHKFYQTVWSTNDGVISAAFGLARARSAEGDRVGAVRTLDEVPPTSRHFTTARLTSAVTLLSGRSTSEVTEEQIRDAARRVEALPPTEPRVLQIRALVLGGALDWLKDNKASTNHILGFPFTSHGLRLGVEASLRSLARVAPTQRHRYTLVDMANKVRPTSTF

As to `O=C(Nc1sc2c(c1C(=O)NCCO)CCCC2)c1ccco1` [Compound 240, Furan-2-carboxylic acid [3-(2-hydroxy-ethylcarbamoyl)-4,5,6,7-tetrahydro-benzo[b]thiophen-2-yl]-amide], the figures for the IC50 in experiment [1] (setting [3]) and in experiment [1] (setting [4]) were 16 µM and no less than 2 µM, respectively.
The corresponding values for `O=C(O)c1c(NC(=O)C2CC2)sc2c1CCCC2` [Compound 252, 2-(Cyclopropanecarbonyl-amino)-4,5,6,7-tetrahydro-benzo[b]thiophene-3-carboxylic acid] are roughly 19 µM and no less than 2 µM.
The like results for `CC(=O)Nc1sc2c(c1C(N)=O)CCCC2` [Compound 250, 2-Acetylamino-4,5,6,7-tetrahydrobenzo[b]thiophene-3-carboxylic acid amide] were, in that order, greater than 30 µM and no less than 2 µM.
With `CCC(C)C(=O)Nc1sc2c(c1C(N)=O)CCCC2` (centres unmarked) [Compound 267, 2-(2-Methyl-butyrylamino)-4,5,6,7-tetrahydrobenzo[b]thiophene-3-carboxylic acid amide], the IC50 is roughly 15 µM in experiment [1] (setting [3]) and no less than 2 µM in experiment [1] (setting [4]).
As for `NC(=O)c1c(NC(=O)C2CC2)sc2c1CCCC2` [Compound 237, 2-(Cyclopropanecarbonyl-amino)-4,5,6,7-tetrahydro-benzo[b]thiophene-3-carboxylic acid amide], the “resistance to macrophage degradation of wildtype PknG-expressing M. smegmatis” value in experiment [2] (1 μM or 10 μM) is on record as “overcomes the resistance to macrophage degradation”. In addition, the “clearance of PknG-expressing M. smegmatis in macrophages” value in experiment [2] (10 μM, 24 hours postinfection, RAW cells) is “as efficient as observed with the mutant or vector control transformants”. Besides, in experiment [1] (setting [5]), the IC50 is 0.2 µM.
As to `NC(=O)c1c(NC(=O)Cc2ccc([N+](=O)[O-])cc2)sc2c1CCCC2` [Compound 238, 2-[2-(4-Nitrophenyl)-acetylamino]-4,5,6,7-tetrahydro-benzo[b]thiophene-3-carboxylic acid amide], the IC50 in experiment [1] (setting [3]) was roughly 5 µM; in experiment [1] (setting [4]), no less than 2 µM.
Turning to `CC(=O)Nc1sc2c(c1C(N)=O)CCC(C)C2` (centres unmarked) [Compound 284, 2-Acetylamino-6-methyl-4,5,6,7-tetrahydrobenzo[b]thiophene-3-carboxylic acid amide], the figures for the IC50 in experiment [1] (setting [3]) and in experiment [1] (setting [4]) were roughly 12 µM and no less than 2 µM, respectively.
The like results for `CC1CCc2c(sc(NC(=O)Cn3cnc([N+](=O)[O-])n3)c2C(N)=O)C1` (centres unmarked) [Compound 239, 6-Methyl-2-[2-(3-nitro-[1,2,4]triazol-1-yl)-acetylamino]-4,5,6,7-tetrahydro-benzo[b]thiophene-3-carboxylic acid amide] were, in that order, greater than 30 µM and no less than 2 µM.
The like results for `CCOC(=O)c1c(NC(=O)C(C)C)sc2c1CCCC2` [Compound 256, 2-Isobutyrylamino-4,5,6,7-tetrahydrobenzo[b]thiophene-3-carboxylic acid ethyl ester] were, in that order, greater than 30 µM and no less than 2 µM.
The like results for `NC(=O)c1c(NC(=O)C2CCC2)sc2c1CCCC2` [Compound 266, 2-(Cyclobutanecarbonyl-amino)-4,5,6,7-tetrahydrobenzo[b]thiophene-3-carboxylic acid amide] were, in that order, roughly 3 µM and no less than 2 µM.
As for `NC(=O)c1c(NC(=O)C2CC2)sc2c1CCSC2` [Compound 286, 2-(Cyclopropanecarbonyl-amino)-4,7-dihydro-5H-thieno[2,3-c]-thiopyran-3-carboxylic acid amide], the IC50 is roughly 2 µM in experiment [1] (setting [3]) and no less than 2 µM in experiment [1] (setting [4]).
In the case of `CC1CCc2c(sc(NC(=O)C3CC3)c2C(N)=O)C1` (centres unmarked) [Compound 270, 2-(Cyclopropanecarbonyl-amino)-6-methyl-4,5,6,7-tetrahydrobenzo[b]thiophene-3-carboxylic acid amide], the IC50 in experiment [1] (setting [5]) was found to be 0.9 µM.
On to `CC(C)C(=O)Nc1sc2c(c1C(N)=O)CCCC2` [Compound 255, 2-Isobutyrylamino-4,5,6,7-tetrahydrobenzo[b]thiophene-3-carboxylic acid amide], for which the figures for the IC50 in experiment [1] (setting [3]) and in experiment [1] (setting [4]) were roughly 3 µM and no less than 2 µM, respectively.
